Patent US20230144898A1, “INHIBITOR OF ASPARTIC ACID SYNTHESIS IN TUMOR CELLS, INHIBITOR OF SPHEROID FORMATION OF TUMOR CELLS, INHIBITOR OF TUMOR CELL METASTASIS, ACTIVITY ENHANCER OF GLYCOLYTIC INHIBITOR, AND PHARMACEUTICAL COMPOSITION FOR SUPPRESSING AND/OR PREVENTING TUMOR METASTASIS” (CCI HOLDINGS INC., priority 2020, published 2023)
pIC50: −log10 of the molar value. ≈ marks a conversion by molar mass, not a printed value. Where two headings read alike, the source gives them in different places. One block for each compound: values may come before it.

Experiments:
B16F10 cells = test: Influence on anticancer action of 2-DG, cell viability (Test Example 3); format: cell-based, mouse; conditions: 2-DG 3 mM to 3 nM, negative control section (DMSO), 36 hours
Experimental: Specifically, to start with, B16F10 cells were seeded in a six-well plate in an amount of 0.5×10^5 cells/mL. Next, after 24 hours starting from seeding, 2-DG (concentration changed from 3 mM to 3 nM) was added and simultaneously treated with neopetasin at a concentration of 0.3 µM or 3 µM. Then, after 36 hours starting from this treatment, the cell viability was measured through the same method as in Test Example 1. Moreover, as a negative control section, DMSO was administered to perform the same experiment.

colon cancer cell lines = conditions: cited from earlier work
[1] = test system: CMeCl cells (canine malignant melanoma cells); test: Proliferation inhibition, CMeC1 cells, trypan blue viable cell count (Test Example 1); format: cell-based; conditions: Cell line: CMeC1, incubated for 72 hours; for pIC50: read-out: IC50
Experimental: Four compounds of petasin, S-petasin, neopetasin and neo-S-petasin were evaluated for the inhibitory effect on proliferation of mouse or canine malignant melanoma cells by the following method.
B16F10 cells (mouse malignant melanoma cells) were obtained from JCRB Cell Bank (National Institutes of Biomedical Innovation, Health and Nutrition). In addition, CMeCl cells (canine malignant melanoma cells) were obtained from Veterinary Surgery Laboratory, Graduate School of Agricultural and Life Sciences, the University of Tokyo. Furthermore, A2058 cells (human malignant melanoma cells) were obtained from JCRB Cell Bank (National Institutes of Biomedical Innovation, Health and Nutrition). B16F10 cells were cultured in a 37° C. incubator (air/CO2 = 95/5 (v/v)) using Dulbecco’s modified Eagle’s medium (DMEM), CMeCl cells in RPMI (Roswell Park Memorial Institute) medium (RPMI1640), and A2058 cells in E-MEM medium.
First, CMeCl cells (canine malignant melanoma cells) were seeded in a six-well plate so as to be 0.5×10^5 cells/mL, and after 24 hours therefrom, each of the above four kinds of compounds (final concentration: 0.01 to 100 µg/mL) was suspended in the medium at a ratio of 0.1% and incubated for 72 hours. 72 hours after the start of culture, the number of viable cells was measured by trypan blue staining. At this time, viable cells (cell viability%) were calculated as the relative number of cells when the number of viable cells in a negative control section (DMSO treatment) was taken as 100%. Then, IC50 was calculated using a GraphPad Prism software system (GraphPad Software Inc.).

[2] = test system: B16F10 cells (mouse malignant melanoma cells); conditions: cited from earlier work
[3] = test system: mitochondria in B16F10 cells; test: MitoTracker Orange staining of mitochondria (Test Example 8); format: cell-based, mouse; conditions: neopetasin 3 µM, metformin 5000 µM; 48 hours
Experimental: In order to determine the action mechanism of neopetasin on inhibiting the aspartic acid synthesis in tumor cells, the influence of neopetasin on mitochondria in B16F10 cells was evaluated. Specifically, B16F10 cells treated with neopetasin (3 µM) for 48 hours through the same method as in Test Example 1 were stained using MitoTracker Orange (Thermo Fisher Scientific, MA, USA), which labels mitochondria depending on membrane potential. In addition, as a positive control section, in place of neopetasin, metformin known as a mitochondrial respiratory chain Complex I inhibitor (mitochondrial toxin) was used at a concentration of 5000 µM to perform the same experiment. Subsequently, the cells stained as described above were photographed with a fluorescence microscope (FIG. 9A). In addition, the relationship between fluorescence intensity of the cells and the distribution of the number of cells was measured using an image cytometer (Tali, Thermo Fisher Scientific, MA, USA) (FIG. 9B).

[4] = test system: mitochondria in B16F10 cells; test: Electron microscope observation of treated cells (Test Example 8); format: cell-based, mouse; conditions: neopetasin 3 µM, metformin 5000 µM
Experimental: Following the above results, the cells respectively treated with neopetasin (3 µM) and metformin (5000 µM) in the above were observed using an electron microscope. Furthermore, DMSO was administered to the negative control section, and the same experiment was performed.

Compound: O=CC[C@@H](O)[C@H](O)[C@H](O)CO [2-DG, 2-deoxy-D-glucose, reference compound]
cell viability (B16F10 cells): reduced in a concentration-dependent manner

pIC50 ([1]; Canis lupus familiaris, 72 h): 5.55
Compound: C=C(C)[C@@H]1C[C@@]2(C)C(=CC1=O)CC[C@@H](OC(=O)/C(C)=C\C)[C@@H]2C [Petasin, petasin]
migration and invasion of colon cancer cell lines (colon cancer cell lines): suppressed migration and invasion
proliferation of colon cancer cell lines (colon cancer cell lines): inhibited proliferation

IC50 (µg/mL) [1]: 0.755 µg/mL (≈ 2.26 µM)
pIC50 [1]: 5.65
Compound: C=C(C)[C@@H]1C[C@@]2(C)C(=CC1=O)CC[C@@H](OC(=O)/C=C\SC)[C@@H]2C [S-petasin, reference compound]

Compound: N.N.[Cl][Pt][Cl] [cisplatin]
IC50 for B16F10 cells (classical anticancer agent) [2]: 5 µg/mL

Compound: CN(C)C(=N)N=C(N)N [metformin, reference compound]
MitoTracker Orange fluorescence intensity [3]: enhanced fluorescence intensity
influence on mitochondria (electron microscope) [4]: the influence on mitochondria was mild

IC50 (µg/mL) [1]: 0.537 µg/mL
pIC50 [1]: 5.79
Compound: neo-S-petasin [reference compound]
